Holding throughout (format): in vivo
Data set [1] concerns ferrets. Description: Influence on nausea and vomiting induced by morphine. The note with it: test substance 5 mg/kg 30 min before morphine 0.6 mg/kg s.c.; for Appearance Frequency / Duration / Latent Time: mean ± standard error; for Latent Time: no symptom counted as 30 min; for Number of Individuals Presenting Symptoms (Number of Individuals Presenting Symptoms/Number of Cases): observed 30 min. The method, then:
About 30 minutes after feeding, ferrets were transferred to observation cages, and the test substances were administered, respectively. Each test substance was dissolved in 5% xylitol, and administered at a dose of 5 mg/kg. Thirty minutes after administration of the test solution, 0.6 mg/kg of morphine was subcutaneously administered at a volume of 1 mL/kg, and the symptoms of vomiting were visually observed until 30 minutes after the administration of morphine.
The appearance frequency, latent time (the time from the administration of morphine to the first appearance of the symptom) and duration (the time from the first vomiting to the final vomiting) of nausea (rhythmical contractile motion of abdomen), of vomiting (vomiting behavior excreting vomit or analogous behavior thereof) and of the total of nausea and vomiting were counted, respectively.

A short description of data set [2]: Test of brain penetration (Test Example 2, oral). Particulars: rat, Crj:CD(SD)IGS male rats, non-fasting, 30 mg/kg orally, brain and plasma 2 hours after administration, n=3. The method, then:
Crj:CD(SD)IGS male rats of 7-8 weeks of age
Each of the test compounds in an amount of 90 mg was suspended in 0.5% methylcellulose 1500 cp to a total volume of 6 mL.
Each test compound was orally administered to non-fasting rats (30 mg/2 mL/kg, n=3), and total blood was collected from the lower aorta 2 hours after the administration. An aliquot of the blood was centrifuged (3000 rpm, 10 minutes, 4° C.), and the concentration of unchanged compound in the obtained blood plasma was measured by LC/MS/MS method.
(§1) After the above-described collection of the total blood, the brain was enucleated from each rat, and homogenized to prepare a 25% homogenate, followed by measurement of the concentration of unchanged compound by LC/MS/MS method.
From the obtained concentrations, Kp values were determined.

A short description of data set [3]: Test of brain penetration (Reference Example 1, intravenous). Particulars: rat, Jcl-SD male rats, non-fasting, 0.5 mg/kg intravenously, brain and plasma 15 minutes after administration, n=2. As to the method:
Jcl-SD male rats of 7 weeks of age
The test compound in an amount of 1.0 mg was dissolved in 0.8 mL of N,N-dimethylacetamide, and 0.8 mL of propylene glycol was added thereto.
The test compound was intravenously administered to non-fasting rats (0.5 mg/0.8 mL/kg, n=2) through the tail vein, and total blood was collected from the lower aorta 15 minutes after the administration. An aliquot of the blood was centrifuged (3000 rpm, 10 minutes, 4° C.), and the concentration of unchanged compound in the obtained blood plasma was measured by LC/MS/MS method.
as §1
From the obtained concentrations, Kp values were determined. As a result, the Kp value of NIT was 1.30.

Marks after values point to notes of the source that are not given here.

As for `Cn1c2c(c3ccccc31)C[C@@]1(O)[C@H]3Cc4ccc(O)c5c4[C@@]1(CCN3CC1CC1)[C@H]2O5` [Compound 1], in data set [1] (Nausea + Vomiting), the “Appearance Frequency” value worked out at 0 ± 0, the Duration amounted to 0 ± 0 min, the “Latent Time” value is on record as 30 ± 0 min and the “Number of Individuals Presenting Symptoms (Number of Individuals Presenting Symptoms/Number of Cases)” value is reported as 0/6##. In addition, in data set [1] (Nausea), the “Appearance Frequency” value turned out to be 0 ± 0, the Duration is 0 ± 0 min, the “Latent Time” value is 30 ± 0 min and the “Number of Individuals Presenting Symptoms (Number of Individuals Presenting Symptoms/Number of Cases)” value was 0/6##. In addition, in data set [1] (Vomiting), the “Appearance Frequency” value turned out to be 0 ± 0, the Duration was found to be 0 ± 0 min, the “Latent Time” value was 30 ± 0 min and the “Number of Individuals Presenting Symptoms (Number of Individuals Presenting Symptoms/Number of Cases)” value is 0/6.

`CCOC(=O)c1ccc2c3c([nH]c2c1)[C@@H]1Oc2c(O)ccc4c2[C@@]12CCN(CC1CC1)[C@H](C4)[C@]2(O)C3` [Compound 2]: in data set [1] (Nausea + Vomiting), the “Appearance Frequency” value is given as 0 ± 0, the Duration amounted to 0 ± 0 min, the “Latent Time” value came to 30 ± 0 min and the “Number of Individuals Presenting Symptoms (Number of Individuals Presenting Symptoms/Number of Cases)” value is listed as 0/6##. In data set [1] (Nausea), the “Appearance Frequency” value is listed as 0 ± 0, the Duration is on record as 0 ± 0 min, the “Latent Time” value is reported as 30 ± 0 min and the “Number of Individuals Presenting Symptoms (Number of Individuals Presenting Symptoms/Number of Cases)” value is 0/6##. For the same compound, in data set [1] (Vomiting), the “Appearance Frequency” value stood at 0 ± 0, the Duration came to 0 ± 0 min, the “Latent Time” value was found to be 30 ± 0 min and the “Number of Individuals Presenting Symptoms (Number of Individuals Presenting Symptoms/Number of Cases)” value is recorded as 0/6. Besides, the Kp (commonly tissue or fluid exposure divided by exposure in the circulation) at 2 h in data set [2] stood at 0.18.

For the compound `Cc1ccc(/C=C2\C[C@@]3(O)[C@H]4Cc5ccc(O)c6c5[C@@]3(CCN4CC3CC3)[C@@H](O6)C2=O)cc1` [Compound 3], in data set [1] (Nausea + Vomiting), the “Appearance Frequency” value amounted to 0 ± 0, the Duration is 0 ± 0 min, the “Latent Time” value came out at 30 ± 0 min and the “Number of Individuals Presenting Symptoms (Number of Individuals Presenting Symptoms/Number of Cases)” value is listed as 0/6##. In data set [1] (Nausea), the “Appearance Frequency” value was found to be 0 ± 0, the Duration amounted to 0 ± 0 min, the “Latent Time” value stood at 30 ± 0 min and the “Number of Individuals Presenting Symptoms (Number of Individuals Presenting Symptoms/Number of Cases)” value was 0/6##. For the same compound, in data set [1] (Vomiting), the “Appearance Frequency” value was found to be 0 ± 0, the Duration amounted to 0 ± 0 min, the “Latent Time” value turned out to be 30 ± 0 min and the “Number of Individuals Presenting Symptoms (Number of Individuals Presenting Symptoms/Number of Cases)” value was 0/6. The Kp at 2 h in data set [2] amounted to 0.46.

`Oc1ccc2c3c1O[C@H]1c4[nH]c5ccccc5c4C[C@@]4(O)[C@@H](C2)N(CC2CC2)CC[C@]314` [NIT, naltrindole] yielded a Kp at 0.25 h in data set [3] of 1.3.

(Values after patent US20090292124A1, “Therapeutic Agent for Nausea and/or Vomiting” (TORAY INDUSTRIES, INC. a corporation of Japan, priority 2005, published 2009).)
